Tests used:
Assay in all cases: relative viability (nuclei count vs DMSO), 5 days (fraction); higher = more cells survive
KN-93 + Vorinostat = compound: CN(C/C=C/C1=CC=C(C=C1)Cl)CC2=CC=CC=C2N(CCO)S(=O)(=O)C3=CC=C(C=C3)OC [KN-93] + O=C(CCCCCCC(=O)Nc1ccccc1)NO [Vorinostat] (partner 1 µM)
Method in brief: (§1)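 Lung cancer cell lines in 1536-well plates were dosed by pin tool the day after seeding, either with one drug alone or with a fixed anchor-drug dose plus five library-drug doses (not always all listed) in √10 steps. After 5 days, cells were fixed and their nuclei stained in one step (final 0.05% Triton X-100, 1% formaldehyde, 1 ug/ml Hoechst), then counted on 4× images. Relative viability is the nuclei count in treated wells divided by that in vehicle wells. Values are medians of duplicate plates.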

KN-93 + Lapatinib = compound: CN(C/C=C/C1=CC=C(C=C1)Cl)CC2=CC=CC=C2N(CCO)S(=O)(=O)C3=CC=C(C=C3)OC [KN-93] + CS(=O)(=O)CCNCc1ccc(-c2ccc3ncnc(Nc4ccc(OCc5cccc(F)c5)c(Cl)c4)c3c2)o1 [Lapatinib] (partner 2 µM)
Method in brief: as §1

KN-93 + Dasatinib = compound: CN(C/C=C/C1=CC=C(C=C1)Cl)CC2=CC=CC=C2N(CCO)S(=O)(=O)C3=CC=C(C=C3)OC [KN-93] + Cc1nc(Nc2ncc(C(=O)Nc3c(C)cccc3Cl)s2)cc(N2CCN(CCO)CC2)n1 [Dasatinib] (partner 0.075 µM)
Method in brief: as §1

KN-93 + Navitoclax = compound: CN(C/C=C/C1=CC=C(C=C1)Cl)CC2=CC=CC=C2N(CCO)S(=O)(=O)C3=CC=C(C=C3)OC [KN-93] + CC1(C)CCC(c2ccc(Cl)cc2)=C(CN2CCN(c3ccc(C(=O)NS(=O)(=O)c4ccc(N[C@H](CCN5CCOCC5)CSc5ccccc5)c(S(=O)(=O)C(F)(F)F)c4)cc3)CC2)C1 [Navitoclax] (partner 0.5 µM)
Method in brief: as §1

KN-93 = compound: CN(C/C=C/C1=CC=C(C=C1)Cl)CC2=CC=CC=C2N(CCO)S(=O)(=O)C3=CC=C(C=C3)OC [KN-93]
Method in brief: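 Hoechst staining, done together with fixation and permeabilisation, marked nuclei for 4× imaging and MetaXpress counting. This followed 5 days without medium change after lung cancer cell lines, kept overnight at 37 °C in 1536-well plates, were pinned with five library-drug doses (not always all listed) spaced by √10 on vehicle-anchored plates. Viability is the ratio of treated-well to vehicle-well nuclei, expressed as a median across plates. Plates passed only at control CV below 25% with at least one doubling.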

| Cell Line | relative viability (KN-93 + Vorinostat; first compound 0.08 µM) | relative viability (KN-93 + Vorinostat; first compound 0.253 µM) | relative viability (KN-93 + Vorinostat; first compound 2.53 µM) | relative viability (KN-93 + Vorinostat; first compound 8 µM) | relative viability (KN-93 + Lapatinib; first compound 0.08 µM) | relative viability (KN-93 + Lapatinib; first compound 0.253 µM) | relative viability (KN-93 + Lapatinib; first compound 2.53 µM) | relative viability (KN-93 + Lapatinib; first compound 8 µM) | relative viability (KN-93 + Dasatinib; first compound 0.08 µM) | relative viability (KN-93 + Dasatinib; first compound 0.253 µM) | relative viability (KN-93 + Dasatinib; first compound 2.53 µM) | relative viability (KN-93 + Dasatinib; first compound 8 µM) | relative viability (KN-93 + Navitoclax; first compound 0.08 µM) | relative viability (KN-93 + Navitoclax; first compound 0.253 µM) | relative viability (KN-93 + Navitoclax; first compound 2.53 µM) | relative viability (KN-93 + Navitoclax; first compound 8 µM) | relative viability (KN-93; 0.08 µM) | relative viability (KN-93; 0.253 µM) | relative viability (KN-93; 2.53 µM) | relative viability (KN-93; 8 µM) |
| --- | --- | --- | --- | --- | --- | --- | --- | --- | --- | --- | --- | --- | --- | --- | --- | --- | --- | --- | --- | --- |
| CAL-12T | 0.833 | 1.01 | 0.783 | 0.687 | 0.616 | 0.574 | 0.716 | 0.496 | 0.358 | 0.286 | 0.509 | 0.139 | 1.2 | 1.19 | 1.53 | 1.23 | 1.09 | 0.983 | 1.09 | 0.744 |
| PC-3 [JPC-3] | 0.794 | 0.765 | 0.756 | 0.637 | 0.462 | 0.382 | 0.439 | 0.428 | 0.941 | 1.11 | 1.03 | 0.673 | 0.75 | 0.824 | 0.913 | 0.64 | 1 | 1.11 | 1.01 | 0.866 |
| LOU-NH91 | 0.957 | 0.835 | 0.903 | 0.8 | 0.761 | 0.575 | 0.886 | 0.692 | 0.504 | 0.532 | 0.604 | 0.458 | 0.621 | 0.63 | 0.709 | 0.545 | 0.988 | 0.834 | 0.963 | 0.842 |
| BEN | 0.637 | 0.596 | 0.599 | 0.487 | – | 0.968 | 0.918 | 0.362 | 0.307 | 0.319 | 0.307 | 0.266 | – | 0.062 | 0.0593 | 0.0709 | 0.881 | 0.969 | 1.08 | 0.688 |
| NCI-H2405 | 1.02 | 1.08 | 0.949 | 0.691 | 1.17 | 1.09 | 1.06 | 0.659 | 0.222 | 0.238 | 0.491 | 0.204 | 0.94 | 0.833 | 0.767 | 0.592 | 1.03 | 1.02 | 1.03 | 0.728 |
| NCI-H2009 | 0.716 | 0.679 | 0.637 | 0.447 | 0.899 | 0.891 | 0.814 | 0.418 | 0.326 | 0.29 | 0.236 | 0.159 | 1.16 | 1.21 | 1.23 | 0.869 | 1.01 | 1.05 | 0.922 | 0.603 |
